Assay results as given in patent US12180145B2, “Fused cyclooctyne compounds and their use in metal-free click reactions” (Synaffix B.V., priority 2010, dated 2024).

Columns and labels:
[1] = prior art cyclooctynes; cited from earlier work
[2] = Reaction kinetics of cycloaddition (SPAAC) with benzyl azide, followed by proton NMR; type: physicochemical
Text: In a preferred embodiment, a compound of the Formula (IIa), (IIb) and/or (IIc), or a conjugate thereof as described above, is reacted with a compound comprising a 1,3-dipole or a 1,3-(hetero)diene. For example the cycloaddition of (IIa) with benzyl azide in aqueous conditions proceeds rapidly and cleanly to the corresponding triazole adducts with excellent reaction kinetics (k=0.09-0.28 M^−1 s^−1, depending on the solvent). […] Consequently, a mixture of the exo- and endo-compounds according to the invention may be applied in some applications, avoiding the need for separation of the exo- and endo-compounds and even further simplifying the synthesis of the compounds according to the invention.
The reaction kinetics for cycloaddition with the prototypical azide benzyl azide were investigated. Thus, compound endo-IIa.2 was dissolved in a 3:1 mixture of CD3CN and D2O and mixed with benzyl azide at a final concentration of 18 mM. […] A significant solvent effect was noticed because the same cycloaddition reaction in a 1:2 mixture of CD3CN and D2O gave rate constants of 0.28 and 0.25 M^−1 s^−1 for endo-IIa.2 and exo-IIa.2, respectively.

[3] = 3:1 mixture of CD3CN and D2O, final concentration 18 mM

OC1Cc2ccccc2C#Cc2ccccc21 (stereo not drawn) [DIBO]
reaction rate constant k of cycloaddition with azide [1]: 0.12 M⁻¹ s⁻¹

O=C(O)CC1CCCCC#CC1(F)F (stereo not drawn) [DIFO3]
reaction rate constant k of cycloaddition with azide [1]: ≤ 0.076 M⁻¹ s⁻¹

OC[C@H]1[C@H]2CCC#CCC[C@@H]12 [endo-IIa.2, endo-9-(hydroxymethyl)bicyclo[6.1.0]non-4-yne]
second-order rate constant of cycloaddition with benzyl azide ([2]; 1:2 mixture of CD3CN and D2O): 0.28 M⁻¹ s⁻¹ | second-order rate constant of cycloaddition with benzyl azide [2, 3]: 0.12 M⁻¹ s⁻¹

OCC1C2CCC#CCCC12 (stereo not drawn) [exo-IIa.2, 9-(hydroxymethyl)bicyclo[6.1.0]non-4-yne]
second-order rate constant of cycloaddition with benzyl azide ([2]; 1:2 mixture of CD3CN and D2O): 0.25 M⁻¹ s⁻¹ | second-order rate constant of cycloaddition with benzyl azide [2, 3]: 0.10 M⁻¹ s⁻¹
